# Source: US20120172359A1 (NOVARTIS AG, priority 2010, published 2012)
# Counter-ions that a name gives are not always drawn.
# Molecular target: Human BACE-1 (Homo sapiens, UniProt P56817)
# Test: Test 1: Inhibition of Human BACE-1
# Assay type: biochemical
# Conditions: Test 1; recombinant BACE-1 (extracellular domain), acetate buffer pH 4.5, 1 hour with test compound at room temperature, fluorescence-quenched peptide substrate; read-out: Bace IC50
# Human BACE-1, sequence (P56817 46-457 limits assumed): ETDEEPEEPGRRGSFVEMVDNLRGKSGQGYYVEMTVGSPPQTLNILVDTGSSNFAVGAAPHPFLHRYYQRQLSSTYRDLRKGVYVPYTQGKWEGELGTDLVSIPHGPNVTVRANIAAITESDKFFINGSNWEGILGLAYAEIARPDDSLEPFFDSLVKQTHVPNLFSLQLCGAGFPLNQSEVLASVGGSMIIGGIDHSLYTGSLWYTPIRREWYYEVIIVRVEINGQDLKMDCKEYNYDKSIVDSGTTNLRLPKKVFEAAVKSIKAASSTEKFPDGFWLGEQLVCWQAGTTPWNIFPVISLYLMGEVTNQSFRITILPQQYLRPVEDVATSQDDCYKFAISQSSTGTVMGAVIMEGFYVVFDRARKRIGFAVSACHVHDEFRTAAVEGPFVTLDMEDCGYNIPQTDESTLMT
row,Structure (SMILES),IC50
1,"COc1ccc(C(=O)Nc2ccc(F)c([C@]3(C(F)F)COCC(N)=N3)c2)nc1 [Example 49, 5-Methoxy-pyridine-2-carboxylic acid [3-((R)-5-amino-3-difluoromethyl-3,6-dihydro-2H-[1,4]oxazin-3-yl)-4-fluoro-phenyl]-amide]",50 nM
2,"C[C@@]1(c2cc(Br)cc(NC(=O)c3ncc(Br)cn3)c2)COCC(N)=N1 [Example 51, 5-Bromo-pyrimidine-2-carboxylic acid [3-((R)-5-amino-3-methyl-3,6-dihydro-2H-[1,4]oxazin-3-yl)-5-bromo-phenyl]-amide hydrochloride]",230 nM
3,"C[C@@]1(c2cc(Br)cc(NC(=O)c3ccc(Br)cn3)c2)COCC(N)=N1 [Example 52, 5-Bromo-pyridine-2-carboxylic acid [3-((R)-5-amino-3-methyl-3,6-dihydro-2H-[1,4]oxazin-3-yl)-5-bromo-phenyl]-amide]",180 nM
4,"C[C@@]1(c2cc(Br)cc(NC(=O)c3ccc(C#N)cn3)c2)COCC(N)=N1 [Example 53, 5-Cyano-pyridine-2-carboxylic acid [3-((R)-5-amino-3-methyl-3,6-dihydro-2H-[1,4]oxazin-3-yl)-5-bromo-phenyl]-amide]",380 nM
5,"Cc1cc(Br)cnc1C(=O)Nc1cc(Br)cc([C@]2(C)COCC(N)=N2)c1 [Example 55, 5-Bromo-3-methyl-pyridine-2-carboxylic acid [3-((R)-5-amino-3-methyl-3,6-dihydro-2H-[1,4]oxazin-3-yl)-5-bromo-phenyl]-amide]",84 nM
6,"C[C@@]1(c2cc(Br)cc(NC(=O)c3ccc(Cl)cn3)c2)COCC(N)=N1 [Example 56, 5-Chloro-pyridine-2-carboxylic acid [3-((R)-5-amino-3-methyl-3,6-dihydro-2H-[1,4]oxazin-3-yl)-5-bromo-phenyl]-amide]",101 nM
7,"Cc1cnc(C(=O)Nc2cc(Br)cc([C@]3(C)COCC(N)=N3)c2)cn1 [Example 57, 5-Methyl-pyrazine-2-carboxylic acid [3-((R)-5-amino-3-methyl-3,6-dihydro-2H-[1,4]oxazin-3-yl)-5-bromo-phenyl]-amide]",1700 nM
8,"Cc1nc(C(=O)Nc2cc(Br)cc([C@]3(C)COCC(N)=N3)c2)c(C)o1 [Example 58, 2,5-Dimethyl-oxazole-4-carboxylic acid [3-((R)-5-amino-3-methyl-3,6-dihydro-2H-[1,4]oxazin-3-yl)-5-bromo-phenyl]amide]",780 nM
9,"Cc1nc(C(=O)Nc2cc(Br)cc([C@]3(C)COCC(N)=N3)c2)co1 [Example 59, 2-Methyl-oxazole-4-carboxylic acid [3-((R)-5-amino-3-methyl-3,6-dihydro-2H-[1,4]oxazin-3-yl)-5-bromo-phenyl]-amide]",240 nM
10,"Cc1cnc(C(=O)Nc2ccc(F)c(C3(C)COCC(N)=N3)c2)cn1 (stereo not shown) [Example 61, 5-Methyl-pyrazine-2-carboxylic acid [3-(5-amino-3-methyl-3,6-dihydro-2H-[1,4]oxazin-3-yl)-4-fluoro-phenyl]-amide hydrochloride]",1970 nM
11,"CC1(c2cc(NC(=O)c3ccc(C#N)cn3)ccc2F)COCC(N)=N1 (stereo not shown) [Example 62, 5-Cyano-pyridine-2-carboxylic acid [3-(5-amino-3-methyl-3,6-dihydro-2H-[1,4]oxazin-3-yl)-4-fluoro-phenyl]-amide hydrochloride]",95 nM
12,"CC1(c2cc(NC(=O)c3ccc(C(N)=O)cn3)ccc2F)COCC(N)=N1 (stereo not shown) [Example 65, Pyridine-2,5-dicarboxylic acid 5-amide 2-{[3-(5-amino-3-methyl-3,6-dihydro-2H-[1,4]oxazin-3-yl)-4-fluoro-phenyl]-amide} hydrochloride]",1200 nM
13,"C[C@@]1(c2cc(NC(=O)c3ccc(C#N)cn3)ccc2F)CO[C@@](C)(C(F)(F)F)C(N)=N1 [Example 73, 5-Cyano-pyridine-2-carboxylic acid [3-((3R,6R)-5-amino-3,6-dimethyl-6-trifluoro-methyl-3,6-dihydro-2H-[1,4]oxazin-3-yl)-4-fluoro-phenyl]-amide hydrochloride]",26 nM
14,"COCCOc1cnc(C(=O)Nc2ccc(F)c([C@]3(C)CO[C@@](C)(C(F)(F)F)C(N)=N3)c2)cn1 [Example 74, 5-(2-Methoxy-ethoxy)-pyrazine-2-carboxylic acid [3-((3R,6R)-5-amino-3,6-dimethyl-6-trifluoromethyl-3,6-dihydro-2H-[1,4]oxazin-3-yl)-4-fluoro-phenyl]-amide hydrochloride]",79 nM
15,"CC1(C)OC[C@](c2cc(NC(=O)c3ccc(C#N)cn3)ccc2F)(C(F)F)N=C1N [Example 79, 5-Cyano-pyridine-2-carboxylic acid[3-(5-amino-3-difluoromethyl-6,6-dimethyl-3,6-dihydro-2H-[1,4]oxazin-3-yl)-4-fluoro-phenyl]-amide]",120 nM
16,"CC1(C)OCC(c2cc(NC(=O)c3ccc(Br)cn3)ccc2F)(C(F)F)N=C1N (stereo not shown) [Example 80, 5-Bromo-pyridine-2-carboxylic acid [3-(5-amino-3-difluoromethyl-6,6-dimethyl-3,6-dihydro-2H-[1,4]oxazin-3-yl)-4-fluoro-phenyl]-amide hydrochloride]",74 nM

row,Structure (SMILES),IC50
1,"NC1=NC(c2cc(NC(=O)c3ccc(Br)cn3)c(F)cc2F)(C(F)F)COC1 (stereo not shown) [Example 81, 5-Bromo-pyridine-2-carboxylic acid [5-(5-amino-3-difluoromethyl-3,6-dihydro-2H-[1,4]oxazin-3-yl)-2,4-difluoro-phenyl]-amide hydrochloride]",1100 nM
2,"N#Cc1ccc(C(=O)Nc2cc(C3(C(F)F)COCC(N)=N3)c(F)cc2F)nc1 (stereo not shown) [Example 82, 5-Cyano-pyridine-2-carboxylic acid [5-(5-amino-3-difluoromethyl-3,6-dihydro-2H-[1,4]oxazin-3-yl)-2,4-difluoro-phenyl]-amide hydrochloride]",3000 nM
3,"COc1cc(Br)cnc1C(=O)Nc1cc(C2(C(F)F)COCC(N)=N2)c(F)cc1F (stereo not shown) [Example 83, 5-Bromo-3-methoxy-pyridine-2-carboxylic acid [5-(5-amino-3-difluoromethyl-3,6-dihydro-2H-[1,4]oxazin-3-yl)-2,4-difluoro-phenyl]-amide hydrochloride]",2900 nM
4,"NC1=NC(c2cc(NC(=O)c3ncc(Br)cc3O)c(F)cc2F)(C(F)F)COC1 (stereo not shown) [Example 84, 5-Bromo-3-hydroxy-pyridine-2-carboxylic acid [5-(5-amino-3-difluoromethyl-3,6-dihydro-2H-[1,4]oxazin-3-yl)-2,4-difluoro-phenyl]-amide hydrochloride]",930 nM
5,"NC1=N[C@](CF)(c2cc(NC(=O)c3ccc(Cl)cn3)ccc2F)COC1 [Example 85, 5-Chloro-pyridine-2-carboxylic acid [3-((R)-5-amino-3-fluoromethyl-3,6-dihydro-2H-[1,4]oxazin-3-yl)-4-fluoro-phenyl]-amide hydrochloride]",26 nM
6,"NC1=NC(CF)(c2cc(NC(=O)c3ccc(Br)cn3)ccc2F)COC1 (stereo not shown) [Example 86, 5-Bromo-pyridine-2-carboxylic acid [3-(5-amino-3-fluoromethyl-3,6-dihydro-2H-[1,4]oxazin-3-yl)-4-fluoro-phenyl]-amide hydrochloride]",44 nM
7,"NC1=NC(CF)(c2cc(NC(=O)c3ccc(Cl)cn3)ccc2F)COC1 (stereo not shown) [Example 87, 5-Chloro-pyridine-2-carboxylic acid [3-(5-amino-3-fluoromethyl-3,6-dihydro-2H-[1,4]oxazin-3-yl)-4-fluoro-phenyl]-amide hydrochloride]",57 nM
8,"NC1=NC(CF)(c2cc(NC(=O)c3ncc(Cl)cc3Cl)ccc2F)COC1 (stereo not shown) [Example 88, 3,5-Dichloro-pyridine-2-carboxylic acid [3-(5-amino-3-fluoromethyl-3,6-dihydro-2H-[1,4]oxazin-3-yl)-4-fluoro-phenyl]-amide hydrochloride]",33 nM
9,"N#Cc1ccc(C(=O)Nc2ccc(F)c(C3(CF)COCC(N)=N3)c2)nc1 (stereo not shown) [Example 89, 5-Cyano-pyridine-2-carboxylic acid [3-(5-amino-3-fluoromethyl-3,6-dihydro-2H-[1,4]oxazin-3-yl)-4-fluoro-phenyl]-amide hydrochloride]",94 nM
10,"Cc1cc(Br)cnc1C(=O)Nc1ccc(F)c(C2(CF)COCC(N)=N2)c1 (stereo not shown) [Example 90, 5-Bromo-3-methyl-pyridine-2-carboxylic acid [3-(5-amino-3-fluoromethyl-3,6-dihydro-2H-[1,4]oxazin-3-yl)-4-fluoro-phenyl]-amide hydrochloride]",39 nM
11,"Cc1cc(Br)cnc1C(=O)Nc1ccc(F)c([C@]2(CF)COCC(N)=N2)c1 [Example 91, 5-Bromo-3-methyl-pyridine-2-carboxylic acid [3-((R)-5-amino-3-fluoromethyl-3,6-dihydro-2H-[1,4]oxazin-3-yl)-4-fluoro-phenyl]-amide hydrochloride]",15 nM
12,"Cc1cc(Cl)cnc1C(=O)Nc1ccc(F)c([C@]2(CF)COCC(N)=N2)c1 [Example 92, 5-Chloro-3-methyl-pyridine-2-carboxylic acid [3-((R)-5-amino-3-fluoromethyl-3,6-dihydro-2H-[1,4]oxazin-3-yl)-4-fluoro-phenyl]-amide]",5 nM
13,"Cl.[2H]c1nc(C(=O)Nc2ccc(F)c([C@]3(CF)COCC(N)=N3)c2)c(C([2H])([2H])[2H])c([2H])c1Cl [Example 93, 5-Chloro-4,6-dideutero-3-trideuteromethyl-pyridine-2-carboxylic acid [3-((R)-5-amino-3-fluoromethyl-3,6-dihydro-2H-[1,4]oxazin-3-yl)-4-fluoro-phenyl]-amide hydrochloride]",8 nM
14,"NC1=N[C@](CF)(c2cc(NC(=O)c3ncc(Br)cc3O)ccc2F)COC1 [Example 94, 5-Bromo-3-hydroxy-pyridine-2-carboxylic acid [3-((R)-5-amino-3-fluoromethyl-3,6-dihydro-2H-[1,4]oxazin-3-yl)-4-fluoro-phenyl]-amide hydrochloride]",22 nM
15,"COc1cc(Br)cnc1C(=O)Nc1ccc(F)c([C@]2(CF)COCC(N)=N2)c1 [Example 95, 5-Bromo-3-methoxy-pyridine-2-carboxylic acid [3-((R)-5-amino-3-fluoromethyl-3,6-dihydro-2H-[1,4]oxazin-3-yl)-4-fluoro-phenyl]-amide]",390 nM
